Consider 2 compounds from patent US8916716B2, “Process for the preparation of crystalline form II of L-malic acid salt of sunitinib” (Ranbaxy Laboratories Limited, priority 2009, dated 2014).

Data set [1] in a line: Solid form stability on storage, followed by XRPD. The following applies: storage for about 20 days or more. The format is physicochemical. The method, then:
The XRPD of the samples were determined by using Panalytical X'Pert Pro X-Ray Powder Diffractometer in the range 3-40 degree 2 theta and under tube voltage and current of 45 Kv and 40 mA respectively. Copper radiation of wavelength 1.54 angstrom and Xceletor detector was used.
The solvent was evaporated at a temperature of about 60° C. to about 65° C. through spray drying.

Data set [2] in a line: Moisture content by KF, initial and after storage. The format is physicochemical.
For data set [3] the following is noted: described in WO 2009/104021; cited from earlier work.

For the compound `CCN(CC)CCNC(=O)c1c(C)[nH]c(/C=C2\C(=O)Nc3ccc(F)cc32)c1C` [Example 1, butanedioic acid, hydroxy-, (2S)—, compound with N-[2-(diethylamino)ethyl]-5-[(Z)-(5-fluoro-1,2-dihydro-2-oxo-3H-indol-3-ylidine)methyl]-2,4-dimethyl-1H-pyrrole-3-carboxamide (1:1)], the “conversion into any other solid form on storage” value in data set [1] is “does not convert into any other solid form”. The results for the “Moisture content by KF” value in data set [2] (after storage at 20° C. to 25° C. for 60 days) and in data set [2] (initial) were 5.52% and 4.48%, respectively. For the same compound, in data set [2] (general statement on the stable Form II), the “moisture absorbed (level)” value is recorded as “not more than 2%”.
For the compound `CCN(CC)CCNC(=O)c1c(C)[nH]c(/C=C2\C(=O)Nc3ccc(F)cc32)c1C` [Form II of sunitinib L-malate, butanedioic acid, hydroxy-, (2S)—, compound with N-[2-(diethylamino)ethyl]-5-[(Z)-(5-fluoro-1,2-dihydro-2-oxo-3H-indol-3-ylidine)methyl]-2,4-dimethyl-1H-pyrrole-3-carboxamide (1:1)], in data set [3], the “conversion to another crystal form” value is given as “appears to readily convert to Form I”, the hygroscopicity entry is given as “hygroscopic” and the thermodynamic stability result was “thermodynamically unstable”.
